For assay [1], the target named is T1, Trans-cinnamate 4-monooxygenase (Populus kitakamiensis, UniProt Q43054).
T1 sequence (Q43054 whole entry): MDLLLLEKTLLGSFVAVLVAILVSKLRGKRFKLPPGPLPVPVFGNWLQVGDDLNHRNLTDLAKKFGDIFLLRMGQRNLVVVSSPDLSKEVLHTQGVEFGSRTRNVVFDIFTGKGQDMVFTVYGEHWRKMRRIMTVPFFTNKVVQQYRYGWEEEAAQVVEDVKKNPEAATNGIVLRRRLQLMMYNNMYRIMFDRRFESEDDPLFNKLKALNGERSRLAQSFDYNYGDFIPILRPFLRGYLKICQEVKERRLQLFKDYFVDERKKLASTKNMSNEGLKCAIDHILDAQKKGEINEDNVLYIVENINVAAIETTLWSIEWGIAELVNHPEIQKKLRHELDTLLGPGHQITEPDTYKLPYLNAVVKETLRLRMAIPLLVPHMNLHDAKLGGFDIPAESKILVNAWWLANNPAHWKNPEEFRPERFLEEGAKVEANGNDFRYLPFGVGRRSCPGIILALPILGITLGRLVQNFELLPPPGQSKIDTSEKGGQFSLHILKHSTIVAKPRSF
In words: Inhibition of Populus sieboldii x Populus grandidentata trans-cinnamate 4-hydroxylase expressed in Saccharomyces cerevisiae BJ2168 assessed as inhibition of hydroxylation of cinnamic acid after 60 min.

For assay [2], the target named is T2, Trans-cinnamate 4-monooxygenase (Populus kitakamiensis) (UniProt Q43054).
T2 sequence (whole entry): T1 sequence (Q43054 whole entry)
Briefly: Inhibition of Populus sieboldii x Populus grandidentata CYP73A1 at 100 uM.

Assay [3] addresses T3, Trans-cinnamate 4-monooxygenase (Helianthus tuberosus, UniProt Q04468).
T3 sequence (Q04468 whole entry): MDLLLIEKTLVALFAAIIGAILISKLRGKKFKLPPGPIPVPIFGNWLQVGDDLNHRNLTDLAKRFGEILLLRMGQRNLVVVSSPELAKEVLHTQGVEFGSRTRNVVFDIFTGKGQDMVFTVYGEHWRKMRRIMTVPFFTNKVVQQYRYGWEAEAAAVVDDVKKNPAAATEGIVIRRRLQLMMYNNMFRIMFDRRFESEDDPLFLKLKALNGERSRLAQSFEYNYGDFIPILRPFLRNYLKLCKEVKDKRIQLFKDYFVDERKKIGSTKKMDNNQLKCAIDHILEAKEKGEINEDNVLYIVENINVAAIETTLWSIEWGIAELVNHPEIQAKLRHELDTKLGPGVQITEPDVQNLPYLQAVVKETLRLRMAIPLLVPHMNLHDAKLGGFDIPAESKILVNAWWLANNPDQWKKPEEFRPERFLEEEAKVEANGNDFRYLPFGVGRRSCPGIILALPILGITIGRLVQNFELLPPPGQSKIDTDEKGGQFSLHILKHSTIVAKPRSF
In words: Inhibition of Helianthus tuberosus CYP73A1.

In general, IC50 refers to the concentration needed to halve the response being measured. Consider `CSc1nnc(-c2ccccc2)o1`, for which the IC50 in assay [1] is greater than 100000 nM.

As to `COc1cccc(-c2nnc(S)o2)c1`, the IC50 in assay [1] turned out to be 6100 nM.

Turning to `Cc1cccc(-c2nnc(S)o2)c1`, the IC50 in assay [1] amounted to 1100 nM.

On to `Sc1nnc(-c2cccc(Cl)c2)o1`, for which the IC50 in assay [1] was 210 nM.

For orientation: inhibition means the relative decrease from the control value, in per cent. As to `O=C(O)c1ccc2c(c1)OCO2` [PIPERONYLIC ACID], the IC50 in assay [1] was greater than 100000 nM. For the same compound, the inhibition in assay [2] is 58%. Regarding `S=c1[nH]nc(-c2ccccc2)o1`, the IC50 in assay [1] came out at 800 nM. Same read-out and setting: as for `O=c1[nH]nc(-c2ccccc2)o1`, the figure is 6700 nM; as for `FC(F)(F)c1cccc(-c2nnc(S)o2)c1`, greater than 100000 nM; as for `Fc1ccc(-c2nnc(S)o2)cc1`, 3300 nM.

As for `Sc1nnc(-c2ccccc2Cl)o1`, in assay [1], the IC50 was determined as 680 nM. As for `Cc1ccccc1-c1nnc(S)o1`, the IC50 in assay [1] is 500 nM. Turning to `c1ccc(-c2nnco2)cc1`, the IC50 in assay [1] was greater than 100000 nM. On the same count and under the same terms, the figure for `Cc1ccc(-c2nnc(S)o2)cc1` is 50000 nM. On the same count and under the same terms, as for `Fc1ccccc1-c1nnc(S)o1`, the figure is 190 nM; as for `Sc1nnc(-c2cc(Cl)cc(Cl)c2)o1`, greater than 100000 nM; as for `Sc1nnc(-c2ccco2)o1`, 5900 nM. As to `Sc1nnc(-c2cccs2)o1`, the IC50 in assay [1] amounted to 6200 nM. The same measure, in the same setting: as for `Sc1nnc(-c2cccnc2)o1`, the figure is 650 nM. Same read-out and setting: the figure for `Sc1nnc(/C=C/c2ccccc2)o1` is greater than 100000 nM; for `Sc1nnc(-c2cccc(Br)c2)o1` it is 420 nM. With `O=C(O)c1c(O)ccc2ccccc12`, the values for the IC50 in assay [1] and in assay [3] were 880 nM and 890 nM, respectively. As to `Sc1nnc(-c2ccccn2)o1`, in assay [1], the half-inhibitory concentration (IC50) came out at 580 nM. Consider `S=c1[nH]nc(-c2ccc(Cl)cc2)o1`, for which the IC50 in assay [1] stood at 23000 nM.

Regarding `S=c1[nH]nc(-c2cccc3ccccc23)o1`, the IC50 in assay [1] is greater than 100000 nM. On the same count and under the same terms, as for `Sc1nnc(-c2ccc3ccccc3c2)o1`, the figure is greater than 100000 nM. The same measure, in the same setting: the figure for `S=c1[nH]nc(C2CCCCC2)o1` is greater than 100000 nM; for `Sc1nnc(-c2cc(Cl)ccc2Cl)o1` it is 2000 nM; for `Sc1nnc(-c2ccncc2)o1` it is 15000 nM. On to `Fc1cccc(-c2nnc(S)o2)c1`, for which, in assay [1], the IC50 was 130 nM.

Regarding `Sc1nnc(-c2ccccc2Br)o1`, the IC50 in assay [1] turned out to be 980 nM.

Source of the values: ChEMBL document CHEMBL3046138, “5-Aryl-1,3,4-oxadiazole-2-thiols as a New Series of trans-Cinnamate 4-Hydroxylase Inhibitors” (J Pestic Sci, 2004).
